Where two headings read alike, the source gives them in different places.
Experiment: Pharmacokinetic evaluation in rats
Type: in vivo
Conditions: male, Sprague-Dawley, rat, plasma, po, 3 mg/kg, 3 mg/kg by gavage
Description: 12 male Sprague-Dawley rats, 7-8 weeks old, of approximately 200 g body weight, were divided into three groups, four in each group.
Rats were feed with standard feed, and were given water, and were started to fast 16 hours before the test. The drug was dissolved in PEG400 and dimethylsulfoxide. Orbital blood collection was conducted, and the blood collection time is 0.25 hour, 0.5 hour, 1 hour, 2 hour, 4 hour, 6 hour, 8 hour, 12 hour, 24 hour, 36 hour and 48 hour after administration.
After inhalation of ether, the rats were shortly anesthesiaed; 300 μL of blood were collected from orbit into a test tube. There were 30 μL of 1% heparin saline solutions in the test tube. Before use, test tubes were dried overnight at 60° C. After the blood sample was collected in the subsequent time point, rats were anesthetized with ether and sacrificed.
After blood sampling, the tube was gently inverted at least 5 times immediately to ensure adequate mixing, and was placed on ice. Blood samples were 5000 rpm centrifuged at 4° C. for 5 minutes to separate the plasma and red blood cells. 100 μL of plasma was pipetted into a clean plastic centrifuge tube, and the name of compounds and the time point were indicated. Plasma was stored in −80° C. before use for the analysis. The concentration of the compound of the invention in plasma was determined with LC-MS/MS. The pharmacokinetic parameters were calculated based on the blood drug concentration of each animal at different time points.

[1] = group G1, Mean of 4 rats, read-out: AUCINF_obs
[2] = group G1, rat 1, read-out: AUCINF_obs
[3] = group G1, rat 2, read-out: AUCINF_obs
[4] = group G1, rat 3, read-out: AUCINF_obs
[5] = group G1, rat 4, read-out: AUCINF_obs
[6] = group G3, Mean of 4 rats, read-out: AUCINF_obs
[7] = group G3, rat 9, read-out: AUCINF_obs
[8] = group G3, rat 10, read-out: AUCINF_obs
[9] = group G3, rat 11, read-out: AUCINF_obs
[10] = group G3, rat 12, read-out: AUCINF_obs

[2H]C([2H])(C#N)NC(=O)c1ccc(-c2ccnc(Nc3ccc(N4CCOCC4)cc3)n2)cc1 [example 8, N-(cyano(d2-methyl))-4-(2-(4-morpholinophenylamino)pyrimidin-4-yl)benzamide]
AUC(0-t) (group G1 (Table 1), mean±SD): 2090 ± 1220 ng·h/mL
Cmax (group G1 (Table 1), mean±SD): 309 ± 175 ng/mL
AUC(0-t) (group G1, Mean of 4 rats): 2090 ng·h/mL
Cmax (group G1, Mean of 4 rats): 309 ng/mL
Tmax (group G1, Mean of 4 rats): 2.56 h
AUC(0-inf) [1]: 2120 ng·h/mL
AUC(0-t) (group G1, rat 1): 3090 ng·h/mL
Cmax (group G1, rat 1): 469 ng/mL
Tmax (group G1, rat 1): 0.25 h
AUC(0-inf) [2]: 3100 ng·h/mL
AUC(0-t) (group G1, rat 2): 574 ng·h/mL
Cmax (group G1, rat 2): 101 ng/mL
Tmax (group G1, rat 2): 4 h
AUC(0-inf) [3]: 616 ng·h/mL
AUC(0-t) (group G1, rat 3): 3050 ng·h/mL
Cmax (group G1, rat 3): 438 ng/mL
Tmax (group G1, rat 3): 4 h
AUC(0-inf) [4]: 3130 ng·h/mL
AUC(0-t) (group G1, rat 4): 1630 ng·h/mL
Cmax (group G1, rat 4): 227 ng/mL
Tmax (group G1, rat 4): 2 h
AUC(0-inf) [5]: 1640 ng·h/mL

[2H]C([2H])(C#N)NC(=O)c1ccc(-c2ccnc(Nc3ccc(N4CC([2H])([2H])OC([2H])([2H])C4)cc3)n2)cc1 [example 6]
AUC(0-t) (group G1 (Table 1), mean±SD): 1900 ± 1100 ng·h/mL
Cmax (group G1 (Table 1), mean±SD): 282 ± 158 ng/mL
AUC(0-t) (group G1, Mean of 4 rats): 1900 ng·h/mL
Cmax (group G1, Mean of 4 rats): 282 ng/mL
Tmax (group G1, Mean of 4 rats): 2.56 h
AUC(0-inf) [1]: 1940 ng·h/mL
AUC(0-t) (group G1, rat 1): 2730 ng·h/mL
Cmax (group G1, rat 1): 423 ng/mL
Tmax (group G1, rat 1): 0.25 h
AUC(0-inf) [2]: 2740 ng·h/mL
AUC(0-t) (group G1, rat 2): 514 ng·h/mL
Cmax (group G1, rat 2): 94.6 ng/mL
Tmax (group G1, rat 2): 4 h
AUC(0-inf) [3]: 561 ng·h/mL
AUC(0-t) (group G1, rat 3): 2840 ng·h/mL
Cmax (group G1, rat 3): 403 ng/mL
Tmax (group G1, rat 3): 4 h
AUC(0-inf) [4]: 2920 ng·h/mL
AUC(0-t) (group G1, rat 4): 1520 ng·h/mL
Cmax (group G1, rat 4): 207 ng/mL
Tmax (group G1, rat 4): 2 h
AUC(0-inf) [5]: 1530 ng·h/mL

[2H]C([2H])(C#N)NC(=O)c1ccc(-c2ccnc(Nc3ccc(N4C([2H])([2H])C([2H])([2H])OC([2H])([2H])C4([2H])[2H])cc3)n2)cc1 [example 3, N-(cyano(d2-methyl))-4-(2-(4-(d8-morpholino)phenylamino)pyrimidin-4-yl)benzamide]
AUC(0-t) (group G3 (Table 3), mean±SD): 2720 ± 922 ng·h/mL
Cmax (group G3 (Table 3), mean±SD): 447 ± 170 ng/mL
AUC(0-t) (group G3, Mean of 4 rats): 2720 ng·h/mL
Cmax (group G3, Mean of 4 rats): 447 ng/mL
Tmax (group G3, Mean of 4 rats): 3.5 h
AUC(0-inf) [6]: 2790 ng·h/mL
AUC(0-t) (group G3, rat 9): 4100 ng·h/mL
Cmax (group G3, rat 9): 694 ng/mL
Tmax (group G3, rat 9): 4 h
AUC(0-inf) [7]: 4180 ng·h/mL
AUC(0-t) (group G3, rat 10): 2300 ng·h/mL
Cmax (group G3, rat 10): 419 ng/mL
Tmax (group G3, rat 10): 4 h
AUC(0-inf) [8]: 2350 ng·h/mL
AUC(0-t) (group G3, rat 11): 2190 ng·h/mL
Cmax (group G3, rat 11): 329 ng/mL
Tmax (group G3, rat 11): 2 h
AUC(0-inf) [9]: 2260 ng·h/mL
AUC(0-t) (group G3, rat 12): 2290 ng·h/mL
Cmax (group G3, rat 12): 344 ng/mL
Tmax (group G3, rat 12): 4 h
AUC(0-inf) [10]: 2350 ng·h/mL

N#CCNC(=O)c1ccc(-c2ccnc(Nc3ccc(N4CCOCC4)cc3)n2)cc1 [example 9, N-(cyanomethyl)-4-(2-(4-morpholinophenylamino)pyrimidin-4-yl)benzamide, reference compound]
AUC(0-t) (group G1 (Table 1), mean±SD): 1620 ± 932 ng·h/mL
Cmax (group G1 (Table 1), mean±SD): 245 ± 140 ng/mL
AUC(0-t) (group G1, Mean of 4 rats): 1620 ng·h/mL
Cmax (group G1, Mean of 4 rats): 245 ng/mL
Tmax (group G1, Mean of 4 rats): 2.56 h
AUC(0-inf) [1]: 1650 ng·h/mL
AUC(0-t) (group G1, rat 1): 2290 ng·h/mL
Cmax (group G1, rat 1): 368 ng/mL
Tmax (group G1, rat 1): 0.25 h
AUC(0-inf) [2]: 2300 ng·h/mL
AUC(0-t) (group G1, rat 2): 443 ng·h/mL
Cmax (group G1, rat 2): 79.4 ng/mL
Tmax (group G1, rat 2): 4 h
AUC(0-inf) [3]: 480 ng·h/mL
AUC(0-t) (group G1, rat 3): 2440 ng·h/mL
Cmax (group G1, rat 3): 354 ng/mL
Tmax (group G1, rat 3): 4 h
AUC(0-inf) [4]: 2510 ng·h/mL
AUC(0-t) (group G1, rat 4): 1320 ng·h/mL
Cmax (group G1, rat 4): 180 ng/mL
Tmax (group G1, rat 4): 2 h
AUC(0-inf) [5]: 1330 ng·h/mL
AUC(0-t) (group G2 (Table 2), mean±SD): 3210 ± 744 ng·h/mL
Cmax (group G2 (Table 2), mean±SD): 589 ± 190 ng/mL
AUC(0-t) (group G2, Mean of 4 rats): 3210 ng·h/mL
Cmax (group G2, Mean of 4 rats): 589 ng/mL
Tmax (group G2, Mean of 4 rats): 3.5 h
AUC(0-inf) (group G2, Mean of 4 rats, read-out: AUCINF_obs): 3240 ng·h/mL
AUC(0-t) (group G2, rat 5): 4080 ng·h/mL
Cmax (group G2, rat 5): 858 ng/mL
Tmax (group G2, rat 5): 2 h
AUC(0-inf) (group G2, rat 5, read-out: AUCINF_obs): 4110 ng·h/mL
AUC(0-t) (group G2, rat 6): 3320 ng·h/mL
Cmax (group G2, rat 6): 567 ng/mL
Tmax (group G2, rat 6): 4 h
AUC(0-inf) (group G2, rat 6, read-out: AUCINF_obs): 3340 ng·h/mL
AUC(0-t) (group G2, rat 7): 3180 ng·h/mL
Cmax (group G2, rat 7): 514 ng/mL
Tmax (group G2, rat 7): 4 h
AUC(0-inf) (group G2, rat 7, read-out: AUCINF_obs): 3210 ng·h/mL
AUC(0-t) (group G2, rat 8): 2270 ng·h/mL
Cmax (group G2, rat 8): 415 ng/mL
Tmax (group G2, rat 8): 4 h
AUC(0-inf) (group G2, rat 8, read-out: AUCINF_obs): 2300 ng·h/mL
AUC(0-t) (group G3 (Table 3), mean±SD): 2190 ± 814 ng·h/mL
Cmax (group G3 (Table 3), mean±SD): 365 ± 146 ng/mL
AUC(0-t) (group G3, Mean of 4 rats): 2190 ng·h/mL
Cmax (group G3, Mean of 4 rats): 365 ng/mL
Tmax (group G3, Mean of 4 rats): 3.5 h
AUC(0-inf) [6]: 2240 ng·h/mL
AUC(0-t) (group G3, rat 9): 3420 ng·h/mL
Cmax (group G3, rat 9): 579 ng/mL
Tmax (group G3, rat 9): 4 h
AUC(0-inf) [7]: 3480 ng·h/mL
AUC(0-t) (group G3, rat 10): 1800 ng·h/mL
Cmax (group G3, rat 10): 336 ng/mL
Tmax (group G3, rat 10): 4 h
AUC(0-inf) [8]: 1850 ng·h/mL
AUC(0-t) (group G3, rat 11): 1750 ng·h/mL
Cmax (group G3, rat 11): 276 ng/mL
Tmax (group G3, rat 11): 2 h
AUC(0-inf) [9]: 1800 ng·h/mL
AUC(0-t) (group G3, rat 12): 1810 ng·h/mL
Cmax (group G3, rat 12): 270 ng/mL
Tmax (group G3, rat 12): 4 h
AUC(0-inf) [10]: 1840 ng·h/mL

— patent US9604935B2, “Deuterated phenyl amino pyrimidine compound and pharmaceutical composition containing the same” (Suzhou Zelgen Biopharmaceuticals Co., Ltd., priority 2013, dated 2017)
